PMC6273394, “Discovery of a New Class of Sortase A Transpeptidase Inhibitors to Tackle Gram-Positive Pathogens: 2-(2-Phenylhydrazinylidene)alkanoic Acids and Related Derivatives” (Molecules, 2016)
Like-named read-outs stand apart in the source and are kept apart here.

What was measured:
S. aureus ATCC 29213 = experiment: Interference with biofilm formation assay (safranin method); type: cell-based; conditions: 100 µM compound, 24 h at 37 °C; for inhibition at 100 µM: Staphylococcus aureus, ATCC29213, 24 h, read-out: Percentages of Inhibition of Biofilm Formation S. aureus 29213
Protocol: (§1) The reference strains S. aureus ATCC 29213, S. aureus ATCC 25923, S. aureus ATCC 6538 and S. epidermidis RP62A were used in the assays.
(§2) The staphylococcal strains were tested for their ability to form biofilms. Briefly, bacteria were grown in TSB containing 2% glucose overnight at 37 °C in a shaking bath and then diluted 1:200 to a suspension with optical density (OD) of about 0.040 at 570 nm. Polystyrene 24-well tissue culture plates were filled with 1 mL of diluted suspension and incubated for 24 h at 37 °C. The wells were then washed three times with 1 mL of sterile phosphate-buffered saline (PBS) and stained with 1 mL of safranin 0.1% v/v for 1 min. The excess stain was removed by placing the plates under running tap water. Plates were dried overnight in an inverted position at 37 °C. Safranin-stained adherent bacteria in each well were re-dissolved to homogeneity in 1 mL of 30% v/v glacial acetic acid, and the OD was read at 492 nm. Each assay was performed in triplicate and repeated at least twice.
(§3) The procedure described above was used to evaluate the activity of phenyl-hydrazinylidene-derivatives in the prevention of biofilm formation. Polystyrene 24-well tissue culture plates were filled with 1 mL of diluted bacterial suspension, obtained and diluted as previously described, and a concentration of 100 µM of each compound was directly added to the bacterial suspension at time zero and incubated at 37 °C for 24 h. The wells were then washed and stained with safranin as per the biofilm forming assay. By comparing the average optical density (O.D.) of the growth control wells with the sample wells, the following formula was used to calculate the percentages of inhibition for each concentration of the sample: (2) Inhibition (%)=OD growth control−OD sample/OD growth control×100
(§4) Each assay was performed in triplicate and assays were repeated at least twice.

S. aureus ATCC 6538 = experiment: as above; type: cell-based; conditions: 100 µM compound, 24 h at 37 °C; for inhibition at 100 µM: Staphylococcus aureus, ATCC6538, 24 h, read-out: Percentages of Inhibition of Biofilm Formation S. aureus 6538
Protocol: as §1, §2, §3, §4

S. aureus ATCC 25923 = experiment: as above; type: cell-based; conditions: 100 µM compound, 24 h at 37 °C; for inhibition at 100 µM: Staphylococcus aureus, ATCC25923, 24 h, read-out: Percentages of Inhibition of Biofilm Formation S. aureus 25923
Protocol: as §1, §2, §3, §4

S. epidermidis RP62A = experiment: as above; type: cell-based; conditions: 100 µM compound, 24 h at 37 °C; for inhibition at 100 µM: Staphylococcus epidermidis, RP62A, 24 h, read-out: Percentages of Inhibition of Biofilm Formation S. epidermidis RP62A
Protocol: as §1, §2, §3, §4

S. aureus SrtA = S. aureus SrtA (Staphylococcus aureus, UniProt Q2FV99); experiment: biochemical
S. aureus SrtA, sequence (Q2FV99 60-206): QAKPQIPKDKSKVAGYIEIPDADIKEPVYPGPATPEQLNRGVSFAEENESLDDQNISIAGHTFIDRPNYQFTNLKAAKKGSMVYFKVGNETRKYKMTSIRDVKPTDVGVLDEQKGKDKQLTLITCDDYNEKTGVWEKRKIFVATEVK

Row | SMILES | inhibition at 100 µM (S. aureus ATCC 29213) [%] | inhibition at 100 µM (S. aureus ATCC 6538) [%] | inhibition at 100 µM (S. aureus ATCC 25923) [%] | inhibition at 100 µM (S. epidermidis RP62A) [%] | IC50 (S. aureus SrtA) [µM] | melting point [°C] | further results
1 | CC(=O)/C(=N/Nc1ccc(C)cc1)C(=O)O [Compound 5f, (2Z)-3-Oxo-2-(2-(4-methylphenyl)hydrazinylidene)butanoic acid] | 40.8 ± 2.1 | 40.3 ± 1.9 | 33.8 ± 2.7 | 24.4 ± 0.9 | 100 |  | 
2 | CCOC(=O)/C(=N\Nc1ccc([N+](=O)[O-])cc1)C(C)=O [Compound 1d, Ethyl (2Z)-3-Oxo-2(2-(4-nitrophenyl)hydrazinylidene)butanoate] |  |  |  |  | 100 | 120 to 122 | 
3 | CCOC(=O)/C(=N/Nc1cc(OC)c(OC)c(OC)c1)C(C)=O [Compound 1e, Ethyl (2E)-3-Oxo-2-(2-(3,4,5-trimethoxyphenyl)hydrazinylidene)butanoate] |  |  |  |  | 110 | 78 to 80 | 
4 | CC(=O)/C(=N/Nc1ccccc1)C(N)=O [Compound 7a, (2Z)-3-Oxo-2-(2-phenylhydrazinylidene)butanamide] | 48.2 ± 2.9 | 42.8 ± 1.1 | 42.1 ± 1.8 | 45.9 ± 2.1 | 120 | 134 to 136 | 
5 | CC(=O)/C(C#N)=N/Nc1ccccc1 [Compound 6a, (2E)-3-Oxo-2-(2-phenylhydrazinylidene)butanenitrile] | 46.2 ± 2.3 | 51 ± 0.9 | 45.1 ± 2.9 | 34.8 ± 1.8 | 80 |  | 
6 | CC(=O)/C(=N/Nc1ccc([N+](=O)[O-])cc1)C(=O)O [Compound 5d, (2Z)-3-Oxo-2-(2-(4-nitrophenyl)hydrazinylidene)butanoic acid] | 73.7 ± 0.8 | 53.6 ± 1.8 | 45.3 ± 1.7 | 48.6 ± 1.6 | 57 |  | 
7 | CC(=O)/C(=N/Nc1ccc(Cl)c(Cl)c1)C(=O)O [Compound 5b, (2Z)-3-Oxo-2-(2-(3,4-dichlorophenyl)hydrazinylidene)butanoic acid] | 71.3 ± 6.4 | 22 ± 0.9 | 39.2 ± 1.4 | 29.1 ± 1.4 | 50 |  | 
8 | COc1ccc2cc3[n+](cc2c1OC)CCc1cc2c(cc1-3)OCO2 [BC, Berberine chloride, reference compound] |  |  |  |  | 120 |  | 
9 | CCOC(=O)/C(=N\Nc1ccccc1)C(=O)c1ccccc1 [Compound 1g, Ethyl (2Z)-3-Oxo-3-phenyl-2-(2-phenylhydrazinylidene)propanoate] |  |  |  |  |  |  | IC50 (S. aureus SrtA; read-out: IC50 (activity as sortase A inhibitors), 10 µM S. aureus sortase A, preincubated 1 h at 37 °C, 50 µM dabcyl-QALPETGEE-edans substrate): > 500 µM
10 | CC(=O)/C(=N/Nc1ccccc1)C(=O)O [Compound 5a, (2Z)-3-Oxo-2-(2-phenylhydrazinylidene)butanoic acid] | ~60 | ~60 | ~60 | ~60 | 80 |  | Percentages of Inhibition of Biofilm Formation S. aureus 29213 (S. aureus ATCC 29213; 100 µM): 62.3 ± 1.5%; Percentages of Inhibition of Biofilm Formation S. aureus 6538 (S. aureus ATCC 6538; 100 µM): 60.1 ± 1.7%; Percentages of Inhibition of Biofilm Formation S. aureus 25923 (S. aureus ATCC 25923; 100 µM): 68.3 ± 2.0%; Percentages of Inhibition of Biofilm Formation S. epidermidis RP62A (S. epidermidis RP62A; 100 µM): 61.5 ± 1.2%
11 | CCOC(=O)/C(=N\Nc1ccc(Cl)c(Cl)c1)C(=O)c1ccccc1 |  |  |  |  |  | 96 to 98 | 
12 | CCOC(=O)/C(=N/Nc1ccc(Cl)c(Cl)c1)C(C)=O [Compound 1b, Ethyl (2E)-3-Oxo-2-(2-(3,4-dichlorophenyl)hydrazinylidene)butanoate] |  |  |  |  | > 500 | 100 to 102 | 
13 | CCOC(=O)/C(=N/Nc1cccc(Cl)c1)C(C)=O [Compound 1c, Ethyl (2E)-3-Oxo-2(2-(3-chlorophenyl)hydrazinylidene)butanoate] |  |  |  |  | > 500 | 70 to 72 | 
14 | O=C(O)/C(=N\Nc1ccccc1)C(=O)c1ccccc1 [Compound 5g, (2Z)-3-Oxo-3-phenyl-2-(2-phenylhydrazinylidene)propanoic acid] | 36.9 ± 1.2 | 41.9 ± 1.7 | 36.8 ± 2.1 | 23.7 ± 0.7 | 98 | 136 to 138 | 
15 | CCOC(=O)/C(=N/Nc1ccc(C)cc1)C(C)=O [Compound 1f, Ethyl (2E)-3-Oxo-2-(2-(4-methylphenyl)hydrazinylidene)butanoate] |  |  |  |  | > 500 |  | 
16 | C=CS(=O)(=O)c1ccccc1 [PVS, Phenyl vinyl sulfone, reference compound] |  |  |  |  |  |  | IC50 (S. aureus SrtA; 10 µM S. aureus sortase A, preincubated 1 h at 37 °C, 50 µM dabcyl-QALPETGEE-edans substrate, read-out: IC50 (activity as sortase A inhibitors)): 736 µM
17 | CN(C)CCC(=O)c1ccc(Cl)c(Cl)c1 [DPDAP, 1-(3,4-dichlorophenyl)-3-dimethylamino-1-propanone, reference compound] |  |  |  |  | 10 |  | 
18 | O=C(O)/C(=N\Nc1ccc(Cl)c(Cl)c1)C(=O)c1ccccc1 [Compound 5h, (2Z)-3-Oxo-2-(2-(3,4-dichlorophenyl)hydrazinylidene)-3-phenylpropanoic acid] | 42.7 ± 3.7 | 70.1 ± 2.1 | 55.9 ± 2.6 | 45.4 ± 1.6 | 100 | 202 to 204 | 
19 | COc1cc(N/N=C(/C(C)=O)C(=O)O)cc(OC)c1OC [Compound 5e, (2Z)-3-Oxo-2-(2-(3,4,5-trimethoxyphenyl)hydrazinylidene)butanoic acid] | 34.8 ± 1.3 | 48.2 ± 0.9 | 28.8 ± 2.9 | 27.1 ± 1.2 | 92 | 150 to 152 | 
20 | CC(=O)/C(=N/Nc1cccc(Cl)c1)C(=O)O [Compound 5c, (2Z)-3-Oxo-2-(2-(3-chlorophenyl)hydrazinylidene)butanoic acid] | 69 ± 4.6 | 30.3 ± 0.4 | 41.1 ± 0.7 | 22.9 ± 1.3 | 87 |  | 
21 | CCOC(=O)/C(=N/Nc1ccccc1)C(C)=O [Compound 1a, Ethyl (2E)-3-Oxo-2-(2-phenylhydrazinylidene)butanoate] |  |  |  |  | 192 | 78 to 80 | 
